In the supplement of paper PMC6045584:
± gives the standard deviation of the averaged measurements.

Tests used:
CANERTINIB = compound: C=CC(=O)Nc1cc2c(Nc3ccc(F)c(Cl)c3)ncnc2cc1OCCCN1CCOCC1 [CANERTINIB]; test: surviving fraction relative to DMSO-only wells; higher = less growth inhibition; conditions: exposure time: 5 days
In short: (§1)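 Each tumour cell line was screened three times, and only lines with replicate Pearson r >0.7 and median Z' >0.3 were kept. Cells in log phase were seeded at 250–500 per well in 384-well plates, left 24 hours, then exposed continuously for five days to inhibitors at 0.5, 1, 5, 10, 50, 100, 500 and 1000 nM. Viability was read as CellTiter-Glo luminescence, with surviving fraction normalised to the median of DMSO-only wells.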

BI-2536 = compound: CC[C@@H]1C(=O)N(C)c2cnc(Nc3ccc(C(=O)NC4CCN(C)CC4)cc3OC)nc2N1C1CCCC1 [BI-2536]; test: as above; conditions: exposure time: 5 days
In short: as §1

Test System	surviving fraction (CANERTINIB; 0.5 nM)	surviving fraction (CANERTINIB; 1 nM)	surviving fraction (CANERTINIB; 5 nM)	surviving fraction (CANERTINIB; 10 nM)	surviving fraction (CANERTINIB; 50 nM)	surviving fraction (CANERTINIB; 100 nM)	surviving fraction (CANERTINIB; 500 nM)	surviving fraction (CANERTINIB; 1000 nM)	surviving fraction (BI-2536; 0.5 nM)	surviving fraction (BI-2536; 1 nM)	surviving fraction (BI-2536; 5 nM)	surviving fraction (BI-2536; 10 nM)	surviving fraction (BI-2536; 50 nM)	surviving fraction (BI-2536; 100 nM)	surviving fraction (BI-2536; 500 nM)	surviving fraction (BI-2536; 1000 nM)
SIHA CERVIX	0.897 ± 0.035	0.809 ± 0.04	0.978 ± 0.023	0.867 ± 0.049	0.951 ± 0.14	0.977 ± 0.055	0.871 ± 0.027	0.727 ± 0.027	1.11 ± 0.027	1.04 ± 0.065	0.351 ± 0.025	0.263 ± 0.031	0.262 ± 0.016	0.301 ± 0.0078	0.214 ± 0.014	0.147 ± 0.015
SKBR3 BREAST	0.831 ± 0.019	0.79 ± 0.017	0.68 ± 0.051	0.6073 ± 0.0035	0.48 ± 0.025	0.4 ± 0.024	0.224 ± 0.0067	0.176 ± 0.0098	0.914 ± 0.12	0.363 ± 0.043	0.158 ± 0.026	0.189 ± 0.02	0.255 ± 0.063	0.356 ± 0.045	0.321 ± 0.018	0.301 ± 0.025
SNU475 LIVER	0.917 ± 0.0099	0.8847 ± 0.0057	0.88 ± 0.051	0.85 ± 0.041	0.9373 ± 0.0055	0.908 ± 0.024	0.869 ± 0.022	0.808 ± 0.058	1.03 ± 0.05	1.01 ± 0.065	0.587 ± 0.06	0.255 ± 0.026	0.2 ± 0.033	0.16 ± 0.0044	0.169 ± 0.0055	0.174 ± 0.018
SUM44 BREAST	0.778 ± 0.15	0.719 ± 0.22	0.797 ± 0.16	0.796 ± 0.18	1.05 ± 0.063	0.948 ± 0.16	0.84 ± 0.14	0.778 ± 0.12	0.797 ± 0.039	0.378 ± 0.025	0.163 ± 0.0069	0.166 ± 0.022	0.158 ± 0.0027	0.154 ± 0.013	0.162 ± 0.013	0.1503 ± 0.00058
SUM149 BREAST	0.898 ± 0.078	0.832 ± 0.052	0.627 ± 0.029	0.531 ± 0.04	0.451 ± 0.053	0.424 ± 0.072	0.324 ± 0.037	0.279 ± 0.037	1.05 ± 0.054	0.906 ± 0.091	0.122 ± 0.012	0.0487 ± 0.0035	0.0743 ± 0.0057	0.0903 ± 0.014	0.084 ± 0.01	0.0603 ± 0.0065
SUM149.B1*.S BREAST	0.921 ± 0.016	0.941 ± 0.015	0.933 ± 0.026	0.917 ± 0.048	0.956 ± 0.028	0.972 ± 0.018	0.868 ± 0.055	0.805 ± 0.029	1.1 ± 0.091	1.05 ± 0.03	0.416 ± 0.067	0.232 ± 0.031	0.269 ± 0.032	0.287 ± 0.021	0.297 ± 0.045	0.229 ± 0.03
SUM159 BREAST	0.973 ± 0.011	0.961 ± 0.028	0.948 ± 0.028	0.9347 ± 0.0076	0.9437 ± 0.0046	0.942 ± 0.022	0.916 ± 0.012	0.9197 ± 0.009	0.968 ± 0.2	0.967 ± 0.19	0.953 ± 0.18	0.864 ± 0.17	0.194 ± 0.035	0.167 ± 0.077	0.131 ± 0.057	0.134 ± 0.05
SYO1 SYNOVIAL	0.836 ± 0.061	0.791 ± 0.045	0.793 ± 0.027	0.784 ± 0.029	0.86 ± 0.029	0.871 ± 0.038	0.666 ± 0.019	0.498 ± 0.022	1.02 ± 0.015	0.884 ± 0.045	0.108 ± 0.036	0.0738 ± 0.015	0.0606 ± 0.0062	0.0441 ± 0.0071	0.0205 ± 0.0005	0.0188 ± 0.0014
T47D BREAST	0.926 ± 0.051	0.898 ± 0.024	0.922 ± 0.058	0.899 ± 0.037	0.973 ± 0.021	0.96 ± 0.012	0.893 ± 0.015	0.874 ± 0.031	0.981 ± 0.018	0.871 ± 0.016	0.551 ± 0.017	0.488 ± 0.01	0.374 ± 0.019	0.53 ± 0.035	0.2606 ± 0.0011	0.276 ± 0.011
U2OS BONE	0.951 ± 0.022	0.95 ± 0.041	0.942 ± 0.025	0.962 ± 0.047	0.991 ± 0.0096	0.991 ± 0.029	0.877 ± 0.017	0.889 ± 0.059	1.04 ± 0.027	1.05 ± 0.063	0.902 ± 0.023	0.302 ± 0.023	0.215 ± 0.0062	0.199 ± 0.01	0.188 ± 0.0087	0.171 ± 0.013
VCAP PROSTATE	0.902 ± 0.036	0.904 ± 0.026	0.954 ± 0.046	0.935 ± 0.12	1.19 ± 0.083	1.17 ± 0.1	0.859 ± 0.09	0.737 ± 0.037	0.925 ± 0.13	0.243 ± 0.0099	0.0727 ± 0.012	0.0763 ± 0.015	0.154 ± 0.031	0.228 ± 0.031	0.07 ± 0.0027	0.0443 ± 0.013
VP229 BREAST	0.724 ± 0.051	0.682 ± 0.085	0.638 ± 0.11	0.514 ± 0.061	0.467 ± 0.021	0.42 ± 0.033	0.201 ± 0.019	0.154 ± 0.044	0.94 ± 0.022	0.729 ± 0.081	0.373 ± 0.093	0.234 ± 0.019	0.254 ± 0.042	0.247 ± 0.019	0.242 ± 0.025	0.19 ± 0.011
YAMATO SYNOVIAL	0.878 ± 0.19	0.857 ± 0.088	0.909 ± 0.065	0.938 ± 0.091	1.27 ± 0.1	1.28 ± 0.067	1.06 ± 0.083	1.1 ± 0.074	1.05 ± 0.061	0.888 ± 0.05	0.345 ± 0.0062	0.315 ± 0.0095	0.324 ± 0.013	0.256 ± 0.014	0.279 ± 0.018	0.336 ± 0.027
ZR751 BREAST	0.993 ± 0.042	0.957 ± 0.044	0.948 ± 0.052	0.957 ± 0.093	0.802 ± 0.026	0.77 ± 0.062	0.648 ± 0.052	0.618 ± 0.029	1.22 ± 0.024	1.27 ± 0.16	0.902 ± 0.075	0.655 ± 0.0093	0.72 ± 0.13	0.865 ± 0.094	0.645 ± 0.039	0.434 ± 0.061
